Data on five compounds can be found in article PMC12247024, “PCFT‐Independent Cellular Uptake of Cyclic Cell‐Penetrating Peptide‐Conjugated Folic Acid” (Chembiochem, 2025).

Data set [1] relates to Caco‐2 cells. As to the kind of experiment: Cellular uptake of fluorescein‐labeled folic acid and conjugates. The format is cell-based. The settings on record: Caco‐2, 4.5 μM. The protocol: (§1) Caco‐2 and HD‐11 cells were then seeded in six‐well plates at a density of 2.0 × 10^5 cells per well, in 2 mL of RPMI no folic acid medium. After overnight incubation, the cells were further incubated for 4 h with fluorescent folic acid and with cTAT‐folic acid‐FL conjugates (4.5 μM) at 37 °C in a humidified atmosphere containing 5% CO2. The cells were washed with PBS, and relative fluorescence of the samples was analyzed with the microplate reader using excitation wavelength of 490 nm and emission wavelength of 520 nm.
The cellular uptake of fluorophore‐labeled folic acid (folic acid‐FL) and cTAT‐folic acid conjugates (cTAT‐folic acid‐FL) was studied at 4.5 μM concentration in Caco‐2 cells, at the physiological and acidic pH.
Figure 1 Cellular uptake of fluorescein‐labeled folic acid and cTAT‐folic acid conjugates (4.5 μM) in Caco‐2 cells in the presence and absence of inhibitors at A) acidic and B) physiological pH. C) WB analysis of PCFT/GAPDH expression in Caco‐2 cells in the presence of 50 μM myricetin. The experiments were replicated in triplicates (n = 3). The values are mean ± standard error for n = 3, *p < 0.01.

A short description of data set [2]: RP‐HPLC ACN elution (relative hydrophobicity). The format is physicochemical. The settings on record: PFP column, water/acetonitrile gradient 5%–95% with 0.1% TFA, detection 220 nm, used by the paper as measure of overall hydrophobicity. The source says:
Peptides were purified using a reverse‐phase high‐performance liquid chromatography (RP‐HPLC) system, Agilent Technologies (Santa Clara, CA, USA), with water and acetonitrile gradient (5%–95%), containing 0.1% TFA as the mobile phase. Pentafluorophenyl (PFP) column was used as the stationary phase, and samples were detected at the absorbance of 220 nm. Electronic spray ionization‐mass spectrometry (ESI‐MS) was used to determine the molecular weights of the synthesized peptides. Mass spectrometry data were provided by the AIMS Mass Spectrometry Laboratory at the University of Toronto. The peptide conjugates were characterized by electrospray ionization mass spectrometry (ESI‐MS) with agreement between the predicted and experimental molecular weights (Table 1). The peptides, cTAT‐folic acid conjugates, and fluorescein‐labeled conjugates were assessed for the peptide purity by analytical RP‐HPLC system (Figure S6–S11, Supporting Information). The broader peaks, peak splitting, and lower signaling intensity of cyclic peptide and their conjugates in the chromatograms are due to the limited interactions of the peptides with the HPLC columns. The appearance of double peaks for TAMRA conjugated linear and cyclic peptides and of folic acid is likely due to the use of 5‐ and 6‐TAMRA isomer, since isomeric dye conjugated molecules tend to show multiple peaks in RP‐HPLC.^[ [23] ^] […] The bioconjugation of folic acid with cTAT increased the overall hydrophobicity of the cyclic peptide (%ACN elution change from 24% to 34% for cTAT and cTAT‐folic acid respectively), and the ACN elution profile of the conjugates was similar to that of folic acid (Table 1).

Data set [3] has as its system PCFT expression in Caco‐2 cells. As to the kind of experiment: WB analysis of PCFT/GAPDH expression. The format is cell-based. The settings on record: Caco‐2, 50 μM, p < 0.01. As to the method: Caco‐2 cells were seeded in six well culture plate at 1 × 10^6 cells per well in RPMI 1640 folic acid negative medium for 24 h followed by the addition of folic acid, cTAT, and cTAT‐folic acid conjugates (0.1–200 μM) for 4 h. 0.5 mL of pre‐chilled RIPA lysis buffer at 4 °C was added to Caco‐2 cells in six‐well plate. The cell samples were scraped and centrifuged at 14 000 × g to remove cellular debris. The amount of protein in cell lysate was measured by using BCA assay. The protein samples (25 μg) were loaded directly onto 12% Tris·HCl polyacrylamide gels using 6X SDS loading buffer (1:1) containing DTT, and gel was run for 1 h at 110 V. After SDS‐PAGE, proteins were transferred to nitrocellulose membrane for 80 min at 110 V (Bio‐rad, Hercules, California, USA). […] Figure 2 PCFT/GAPDH expression in Caco‐2 cells was measured by the WBs as a function of concentration of, A) folic acid, B) cTAT‐folic acid conjugates, and C) comparison of cTAT‐folic acid conjugates (4.5 μM) with unconjugated cTAT + folic acid (4.5 μM).The experiments were replicated twice in triplicates (n = 3) and upon 4 h post‐treatment. […]

Data set [4] relates to IL‐1β and IFN‐β production in HD‐11 cells. As to the kind of experiment: Cytokine release (ELISA) upon IBDV infection. The format is cell-based, chicken. The settings on record: HD‐11, IBDV at TCID50 for 1 h, then folic acid 20 μM or cTAT‐folic acid 4.5 μM, n = 3, p < 0.01. As to the method:
A modified live IBDV vaccine, UNIVAX‐BDmild strain (ST12) from MSD Animal Health, was reconstituted with10 mL of PBS, and 500 μL aliquots were stored at −80 °C, according to previously reported procedures.^[ [25] ^] An aliquot of the vaccine was added to a tissue culture‐treated T‐25 flask containing confluent HD‐11 cells, and the flask was incubated at 37 °C with 5% CO2 for 1 h to reproduce the virus and to obtain multiplicity of infection (MOI = 1). Following this, 5 mL of media was added, and the cells were incubated for 72 h under the same conditions. After that, the supernatant was extracted, centrifuged for 10 min at 1000 × g, and 500 μL aliquots were taken out and kept at −80 °C to evaluate 50% tissue culture infective‐dose assay (TCID50) in HD‐11. […] The plate was incubated at 37 °C with 5% CO2 for 4 h, and TCID50 was evaluated by MTS assay, as described above.
HD‐11 and RAW 264.7 cells were cultured in folic acid free RPMI containing 10% FBS and 1% penicillin–[…] solution. […] After 24 h of incubation, cell culture supernatant were collected, and production of chicken IL‐1β and IFN‐β cytokines in HD‐11 was evaluated in triplicate by ELISA kits purchased from Genorise Scientific Inc. (Berwyn, PA 19 312, United States). The production of mouse IL‐1β, TNF‐α and IL‐10 was quantified in RAW 264.7 cells in triplicates by ELISA assay. […]

For data set [5], the system named is IL‐1β, TNF‐α and IL‐10 production in RAW 264.7 cells. As to the kind of experiment: Cytokine release (ELISA) upon LPS challenge. The settings on record: RAW264.7, LPS for 1 h, then folic acid 20 μM or cTAT‐folic acid 4.5 μM, n = 3, p < 0.01. It counts as cell-based, mouse. The protocol: HD‐11 and RAW 264.7 cells were cultured in folic acid free RPMI containing 10% FBS and 1% penicillin–[…] solution. Cytokine release profile from HD‐11 chicken macrophage cells and RAW 264.7 […] macrophage cells was studied by treating cells in growth phase (≈70% confluency) with 1 μg mL^−1 LPS or with IBDV at TCID50 for 1 h, followed by the addition of folic acid (20 μM) and cTAT‐folic acid conjugates (4.5 μM) in serum‐free, folic acid‐negative RPMI‐1640 medium. After 24 h of incubation, cell culture supernatant were collected, and production of chicken IL‐1β and IFN‐β cytokines in HD‐11 was evaluated in triplicate by ELISA kits purchased from Genorise Scientific Inc. (Berwyn, PA 19 312, United States). The production of mouse IL‐1β, TNF‐α and IL‐10 was quantified in RAW 264.7 cells in triplicates by ELISA assay.
Figure 4 ELISA assay showing A) cytokine expression in HD‐11 cells upon IBDV infection for 1 h, followed by the treatment with folic acid (20 μM) and cTAT‐folic acid conjugates (4.5 μM), and B) cytokine expression (IL‐1β, IL‐10, and TNF‐α) upon LPS (0.5 μg mL^−1) challenge of RAW 264.7 for 1 h, followed by the treatment with folic acid (20 μM) and cTAT‐folic acid conjugates (4.5 μM) for 4 h. The values are mean ± standard error for n = 3, *p < 0.01 and **p < 0.05.
(In general: In an ELISA, binding on a coated surface is turned into a signal by an enzyme label.)

Data set [6] deals with DHFR activity in Caco‐2 cell lysates. As to the kind of experiment: DHFR assay in lysates of treated cells. It counts as cell-based. The settings on record: for DHFR activity in cell lysates: Caco‐2 treated at acidic pH for 4 h, NADPH absorbance 340 nm, mean, n = 3. The protocol: DHFR kit was purchased from Millipore Sigma and was used to analyze DHFR activity, according to manufacturer's protocol. DHFR enzyme catalyzes the reduction of dihydrofolic acid to tetrahydrofolic acid, which is reversible and NADPH‐dependent reaction.
Dihydrofolic acid + NADPH + H^+ ↔ Tetrahydrofolic acid + NADP^+
Briefly, 20 μM NADPH, 15 μM DHF, 5 μM DHFR, 50 mM Tris (pH 7.5), and 2 mg mL^−1 of cell lysates from Caco‐2 samples treated with 4.5 μM of cTAT‐folic acid conjugates and 20 μM folic acid were added to obtain final volume of 100 μL. DHFR activity at room temperature was monitored by continuously measuring the drop in NADPH concentration, by taking the absorbance at 340 nm for up to 2.5 min.
Figure 3 DHFR activity in units/mg of protein in Caco‐2 cells lysates, performed 4‐h post‐treatment. A) Cotreatment of cells with folic acid, cTAT‐folic acid conjugates, and myricetin and B) treatment of cell lysates with methotrexate (MTX). The values are mean ± standard error for n = 3, *p < 0.01. Units per mg indicate DHFR activity per mg of protein in the sample, where total protein content (mg) in each sample was measured by BCA assay.

Data set [7] relates to T1, trypsin.
T1 construct: purchased Sigma Aldrich / VWR Life Sciences
As to the kind of experiment: Trypsin treatment, intact peptide by HPLC. The format is in vitro ADME. The settings on record: isolated enzyme trypsin. From the text: (§2) Compared with the linear peptides, cyclic analogs are well documented for enhanced physiological stability and resistance to enzymatic degradation.^[ [20], [21], [22] ^]

Data set [8] deals with Caco‐2 cells. As to the kind of experiment: Cellular uptake of fluorophore‐labeled linear and cyclic peptides. It counts as cell-based. The settings on record: Caco‐2, fluorophore‐labeled peptides, fluorescence microscopy and cell lysates by microplate reader. The protocol: as §1, §2
The subject of data set [9] is HD‐11 cells. The data set is described as above. The note with it: HD‐11, fluorophore‐labeled peptides, fluorescence microscopy and cell lysates by microplate reader. It counts as cell-based, chicken. The protocol: as §1, §2
Data set [10] can be described thus: Trypsin treatment, intact peptide by HPLC. The format is in vitro ADME. The settings on record: isolated enzyme trypsin, trypsin, HPLC chromatogram analysis, read-out: intact peptide after trypsin treatment.
Source text: as §2

Setting [11] is: folic acid 20 μM, cTAT‐folic acid 4.5 μM.

Positions of bridges follow the written chain, without caps; N, C: chain ends. Residues, ends and D or L forms follow the SMILES beside them.

With “CONH2‐c[EYGRKKRRQRRRK]C(FL)‐NH‐folic acid (sidechain bridge or staple) [cTAT‐folic acid‐FL, fluorescein‐labeled cTAT‐folic acid conjugate, fluorescein on an inserted Cys]”, in data set [1], the “difference in cellular uptake between acidic and physiological pH” value is on record as “no significant difference”. Further, the “cellular uptake upon ethanol treatment of the cells” value in data set [1] (physiological and acidic pH) is given as “only partially inhibited”. In addition, in [2], the “ACN elution [%]” value is reported as 29.86%.
As for `O=c1c(O)c(-c2cc(O)c(O)c(O)c2)oc2cc(O)cc(O)c12` [myricetin], in data set [3], the “PCFT expression compared with the untreated cells” value is on record as “significantly downregulated”.
For the compound `Nc1nc(=O)c2nc(CNc3ccc(C(=O)N[C@@H](CCC(=O)O)C(=O)O)cc3)cnc2[nH]1` [Folic acid], the “production of proinflammatory cytokines in challenged macrophages” value in data set [4] and in [5] was “reduced the production of proinflammatory cytokines” in each case. Besides, the “ACN elution [%]” value in data set [2] was found to be 34.06%. Further, in data set [6] (Caco‐2, acidic pH, 4 h, folic acid 20 μM, cTAT‐folic acid 4.5 μM, plus myricetin), the “DHFR activity in cell lysates, cotreatment with myricetin” value is 10 units mg^−1 of protein. Moreover, the “DHFR activity in MTX‐treated cell lysates” value in data set [6] (Caco‐2 lysates plus methotrexate 100 μM) is “negligible DHFR activity”. Besides, the “DHFR activity in cell lysates” value in data set [6] (setting [11]) is 59 units mg^−1 of protein.
For `N=C(N)NCCC[C@@H]1NC(=O)[C@H](CCCCN)NC(=O)[C@H](CCCCN)NC(=O)[C@H](CCCNC(=N)N)NC(=O)[C@H](CCCNC(=N)N)NC(=O)[C@H](CCC(N)=O)NC(=O)[C@H](CCCNC(=N)N)NC(=O)[C@H](CCCNC(=N)N)NC(=O)[C@H](CCCNC(=N)N)NC(=O)[C@@H](N)CCCCNC(=O)CC[C@@H](C(N)=O)NC(=O)[C@H](Cc2ccc(O)cc2)NC(=O)CNC1=O` [cTAT] (H-KRRRQRRKKRGYE-NH2; lactam 1-13), the “ACN elution [%]” value in [2] turned out to be 24%. Further, in data set [7], the remaining at 1 h worked out at 49% and the remaining at 20 h is 27%. Besides, in data set [6] (setting [11]), the “DHFR activity in cell lysates” value is on record as “no significant DHFR activity”. The “cellular uptake, cyclic versus linear peptide” value in [8] is reported as “significantly higher cellular uptake”. In data set [9], the “cellular uptake, cyclic versus linear peptide” value is “significantly higher cellular uptake”.
Turning to `N=C(N)NCCC[C@H](NC(=O)[C@H](CCCCN)NC(=O)[C@H](CCCCN)NC(=O)[C@H](CCCNC(=N)N)NC(=O)[C@H](CCCNC(=N)N)NC(=O)[C@H](CCC(N)=O)NC(=O)[C@H](CCCNC(=N)N)NC(=O)[C@H](CCCNC(=N)N)NC(=O)[C@H](CCCNC(=N)N)NC(=O)[C@@H](N)CCCCN)C(=O)NCC(=O)N[C@@H](Cc1ccc(O)cc1)C(=O)N[C@@H](CCC(=O)O)C(N)=O` [linear peptide] (H-KRRRQRRKKRGYE-NH2; N-terminus assumed), in data set [10] (1 h incubation), the remaining at 1 h came out at 36%. In [10] (20 h post‐treatment), the remaining at 20 h worked out at 15%. Also, the “cellular uptake, cyclic versus linear peptide” value in data set [8] and in [9] was “lower uptake at all studied time points” each time.
